Experiments:
human AT1 receptor = target: T1, human AT1 receptor (Homo sapiens, UniProt P30556); assay: AT1 radioligand binding assay (Assay 1); conditions: displacement of [Eu]AngII, membranes of CHO-K1 cells expressing human AT1 receptor; read-out: pKi at the AT1 receptor (converted)
T1 construct: expressed in transfected cells; membranes
T1 sequence (P30556 1-359): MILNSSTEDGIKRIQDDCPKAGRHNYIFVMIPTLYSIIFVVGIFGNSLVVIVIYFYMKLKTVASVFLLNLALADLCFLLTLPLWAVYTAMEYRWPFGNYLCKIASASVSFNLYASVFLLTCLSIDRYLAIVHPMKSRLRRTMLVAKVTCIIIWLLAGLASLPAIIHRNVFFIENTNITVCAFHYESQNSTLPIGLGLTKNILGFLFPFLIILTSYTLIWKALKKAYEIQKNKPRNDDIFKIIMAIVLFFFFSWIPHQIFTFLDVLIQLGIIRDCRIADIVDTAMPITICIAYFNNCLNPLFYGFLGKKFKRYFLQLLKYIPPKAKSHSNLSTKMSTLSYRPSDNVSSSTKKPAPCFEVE
Experimental: These in vitro assays were used to assess the ability of test compounds to bind to the AT1 and the AT2 receptors.
Membrane Preparation From Cells Expressing Human AT1 or AT2 Receptors
Chinese hamster ovary (CHO-K^1) derived cell lines stably expressing the cloned human AT1 or AT2 receptors, respectively, were grown in HAM's-F12 medium supplemented with 10% fetal bovine serum, 10 μg/ml penicillin/streptomycin, and 500 μg/ml geneticin in a 5% CO2 humidified incubator at 37° C. AT2 receptor expressing cells were grown in the additional presence of 100 nM PD123,319 (AT2 antagonist). When cultures reached 80-95% confluence, the cells were washed thoroughly in PBS and lifted with 5 mM EDTA. Cells were pelleted by centrifugation and snap frozen in MeOH-dry ice and stored at −80° C. until further use.
For membrane preparation, cell pellets were resuspended in lysis buffer (25 mM Tris/HCl pH 7.5 at 4° C., 1 mM EDTA, and one tablet of Complete Protease Inhibitor Cocktail Tablets with 2 mM EDTA per 50 mL buffer (Roche cat.#1697498, Roche Molecular Biochemicals, Indianapolis, Ind.)) and homogenized using a tight-fitting Dounce glass homogenizer (10 strokes) on ice. The homogenate was centrifuged at 1000×g, the supernatant was collected and centrifuged at 20,000×g. […] Protein concentration of the membrane suspension was determined by the method described in Bradford (1976) Anal Biochem. 72:248-54. […]

NEP enzyme = target: T2, NEP enzyme (Homo sapiens, UniProt P08473); assay: In vitro NEP enzyme inhibition assay (Assay 2); type: biochemical; conditions: fluorogenic peptide substrate; species of NEP (human or rat) not given; read-out: pIC50 for the NEP enzyme (converted)
T2 construct: purchased R&D Systems, Minneapolis, Minn; 1182-ZN
Experimental: The inhibitory activities of compounds at human and rat NEP and human ACE were determined using in vitro assays as described below.
Rat NEP was prepared from the kidneys of adult Sprague Dawley rats. Whole kidneys were washed in cold PBS and brought up in ice-cold lysis buffer (1% Triton X-114, 150 mM NaCl, 50 mM Tris pH 7.5; Bordier (1981) J. Biol. Chem. 256:1604-1607) in a ratio of 5 mL of buffer for every gram of kidney. Samples were homogenized using a polytron hand held tissue grinder on ice. Homogenates were centrifuged at 1000×g in a swinging bucket rotor for 5 minutes at 3° C. The pellet was resuspended in 20 mL of ice cold lysis buffer and incubated on ice for 30 minutes. […] Protein concentrations were quantitated using a BCA detection system with BSA as a standard. […]
The assays were performed in 384-well white opaque plates at room temperature using the respective fluorogenic peptides at a concentration of 10 μM in assay buffer (50 mM Tris/HCl at 25° C., 100 mM NaCl, 0.01% Tween-20, 1 μM Zn, 0.025% BSA). […] The rat NEP enzyme preparation was used at a concentration that yielded quantitative proteolysis of 3 μM of Mca-RRL within 20 minutes at room temperature.
Assays were started by adding 25 μL of enzyme to 12.5 μL of test compound at 12 concentrations (10 μM to 20 pM). […] Plates were read on a fluorometer with excitation and emission wavelengths set to 320 nm and 405 nm, respectively. […]

T2 sequence (P08473 52-750 limits assumed): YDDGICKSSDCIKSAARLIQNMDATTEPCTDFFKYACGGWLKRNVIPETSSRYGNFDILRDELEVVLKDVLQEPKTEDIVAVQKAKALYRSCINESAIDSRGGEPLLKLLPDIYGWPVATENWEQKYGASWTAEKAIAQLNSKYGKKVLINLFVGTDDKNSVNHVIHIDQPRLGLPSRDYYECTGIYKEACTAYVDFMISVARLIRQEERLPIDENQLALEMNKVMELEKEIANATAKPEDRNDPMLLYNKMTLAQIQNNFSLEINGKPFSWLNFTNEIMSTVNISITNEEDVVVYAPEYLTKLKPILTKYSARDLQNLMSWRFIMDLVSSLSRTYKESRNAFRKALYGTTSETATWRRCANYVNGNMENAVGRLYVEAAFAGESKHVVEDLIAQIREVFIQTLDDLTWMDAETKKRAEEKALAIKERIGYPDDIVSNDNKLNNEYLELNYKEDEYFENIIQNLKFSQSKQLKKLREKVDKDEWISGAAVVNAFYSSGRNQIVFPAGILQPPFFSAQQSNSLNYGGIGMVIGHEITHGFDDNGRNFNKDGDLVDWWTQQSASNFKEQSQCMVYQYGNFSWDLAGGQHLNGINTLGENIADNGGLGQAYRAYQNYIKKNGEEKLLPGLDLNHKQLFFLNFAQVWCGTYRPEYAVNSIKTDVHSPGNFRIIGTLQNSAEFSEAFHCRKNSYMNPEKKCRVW

Ki (human AT1 receptor): < 100 nM
IC50 (NEP enzyme): ≤ 100 nM
SMILES: CCCc1nc2c(C)cc(C(=O)N[C@@H](CC(=O)NO)Cc3ccccc3)cc2n1Cc1ccc(-c2ccccc2C(=O)O)cc1 [Example 1, 4′-[6-((R)-1-Benzyl-2-hydroxycarbamoylethylcarbamoyl)-4-methyl-2-propylbenzoimidazol-1-ylmethyl]biphenyl-2-carboxylic Acid]
